Experimental data as given in ChEMBL document CHEMBL1201862, “PubChem BioAssay data set” (2004).
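Tested at 5 concentrations; 48 h exposure; 96-well plates; endpoints linearly interpolated, else capped at highest concentration. GI50 marks 50% less growth.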 Calls of active or inactive are those of the source. No stated cut-off is given here; in the data, active = GI50 up to about 1.1 µM and inactive = higher.

Key:
Assay in all cases: NCI tumour cell line growth inhibition, 48 h
[1] = tested on: 786-0
[2] = tested on: A498
[3] = tested on: A549
[4] = tested on: ACHN
[5] = tested on: CAKI-1
[6] = tested on: CCRF-CEM
[7] = tested on: COLO 205
[8] = tested on: DLD-1
[9] = tested on: EKVX
[10] = tested on: HCC 2998
[11] = tested on: HCT-116
[12] = tested on: HCT-15
[13] = tested on: HL-60
[14] = tested on: HOP-18
[15] = tested on: HOP-62
[16] = tested on: HOP-92
[17] = tested on: HT-29
[18] = tested on: IGROV-1
[19] = tested on: K562
[20] = tested on: KM-20L2
[21] = tested on: KM12
[22] = tested on: LOX IMVI
[23] = tested on: LXFL 529
[24] = tested on: M14
[25] = tested on: MOLT-4
[26] = tested on: Malme-3M
[27] = tested on: NCI-H226
[28] = tested on: NCI-H23
[29] = tested on: NCI-H460
[30] = tested on: NCI-H522
[31] = tested on: OVCAR-3
[32] = tested on: OVCAR-4
[33] = tested on: OVCAR-5
[34] = tested on: OVCAR-8
[35] = tested on: RPMI-8226
[36] = tested on: RXF 393
[37] = tested on: RXF 631
[38] = tested on: SF-268
[39] = tested on: SF-295
[40] = tested on: SF-539
[41] = tested on: SK-MEL-28
[42] = tested on: SK-MEL-2
[43] = tested on: SK-MEL-5
[44] = tested on: SK-OV-3
[45] = tested on: SN12C
[46] = tested on: SNB-19
[47] = tested on: SNB-75
[48] = tested on: SNB-78
[49] = tested on: SR
[50] = tested on: SW-620
[51] = tested on: TK-10
[52] = tested on: U-251
[53] = tested on: UACC-257
[54] = tested on: UACC-62
[55] = tested on: UO-31
[56] = tested on: DMS-114
[57] = tested on: DMS-273
[58] = tested on: M19-MEL
[59] = tested on: XF498

CC(C)(C)C#C[P+](c1ccccc1)(c1ccccc1)c1ccccc1
GI50 [1]: 337 nM (active)
GI50 [2]: 230 nM (active)
GI50 [3]: 253 nM (active)
GI50 [4]: 1390 nM (inactive)
GI50 [5]: 804 nM (active)
GI50 [6]: 108 nM (active)
GI50 [7]: 170 nM (active)
GI50 [8]: 191 nM (active)
GI50 [9]: 566 nM (active)
GI50 [10]: 293 nM (active)
GI50 [11]: 177 nM (active)
GI50 [12]: 655 nM
GI50 [13]: 57 nM (active)
GI50 [14]: 855 nM (active)
GI50 [15]: 277 nM (active)
GI50 [16]: 194 nM (active)
GI50 [17]: 292 nM (active)
GI50 [18]: 578 nM (active)
GI50 [19]: 49.8 nM (active)
GI50 [20]: 345 nM (active)
GI50 [21]: 238 nM (active)
GI50 [22]: 328 nM (active)
GI50 [23]: 58.6 nM (active)
GI50 [24]: 225 nM (active)
GI50 [25]: 197 nM (active)
GI50 [26]: 349 nM (active)
GI50 [27]: 330 nM (active)
GI50 [28]: 353 nM (active)
GI50 [29]: 152 nM (active)
GI50 [30]: 150 nM (active)
GI50 [31]: 351 nM (active)
GI50 [32]: 211 nM (active)
GI50 [33]: 1150 nM (inactive)
GI50 [34]: 185 nM (active)
GI50 [35]: 37.7 nM (active)
GI50 [36]: 329 nM (active)
GI50 [37]: 1000 nM (active)
GI50 [38]: 203 nM (active)
GI50 [39]: 292 nM (active)
GI50 [40]: 373 nM (active)
GI50 [41]: 72.8 nM (active)
GI50 [42]: 409 nM (active)
GI50 [43]: 187 nM (active)
GI50 [44]: 655 nM (active)
GI50 [45]: 192 nM (active)
GI50 [46]: 274 nM (active)
GI50 [47]: 34.8 nM (active)
GI50 [48]: 339 nM (active)
GI50 [49]: 149 nM (active)
GI50 [50]: 152 nM (active)
GI50 [51]: 1430 nM (inactive)
GI50 [52]: 119 nM (active)
GI50 [53]: 366 nM (active)
GI50 [54]: 297 nM (active)
GI50 [55]: 1040 nM (active)

Cn1nc(-c2ccccc2)c(C(=O)/C=C/c2ccc(F)cc2)c(N2CCCCC2)c1=O
GI50 [1]: 4620 nM (inactive)
GI50 [3]: 5130 nM (inactive)
GI50 [4]: 12700 nM (inactive)
GI50 [5]: 8750 nM (inactive)
GI50 [6]: 2610 nM (inactive)
GI50 [7]: 4120 nM (inactive)
GI50 [8]: 3610 nM (inactive)
GI50 [56]: 3860 nM (inactive)
GI50 [57]: 4030 nM (inactive)
GI50 [9]: 16300 nM (inactive)
GI50 [11]: 3310 nM (inactive)
GI50 [12]: 5060 nM
GI50 [13]: 759 nM (active)
GI50 [14]: 5660 nM (inactive)
GI50 [16]: 3850 nM (inactive)
GI50 [17]: 5320 nM (inactive)
GI50 [18]: 11500 nM (inactive)
GI50 [19]: 3390 nM (inactive)
GI50 [20]: 5180 nM (inactive)
GI50 [22]: 3500 nM (inactive)
GI50 [23]: 4680 nM (inactive)
GI50 [24]: 5930 nM (inactive)
GI50 [58]: 8360 nM (inactive)
GI50 [25]: 2630 nM (inactive)
GI50 [28]: 4190 nM (inactive)
GI50 [29]: 4830 nM (inactive)
GI50 [30]: 5900 nM (inactive)
GI50 [34]: 5810 nM (inactive)
GI50 [35]: 2480 nM (inactive)
GI50 [36]: 2530 nM (inactive)
GI50 [37]: 8610 nM (inactive)
GI50 [38]: 6350 nM (inactive)
GI50 [40]: 4540 nM (inactive)
GI50 [41]: 3790 nM (inactive)
GI50 [43]: 5730 nM (inactive)
GI50 [44]: 15000 nM (inactive)
GI50 [45]: 8390 nM (inactive)
GI50 [46]: 13200 nM (inactive)
GI50 [50]: 5060 nM (inactive)
GI50 [51]: 17800 nM (inactive)
GI50 [52]: 5740 nM (inactive)
GI50 [54]: 6270 nM (inactive)
GI50 [55]: 5580 nM (inactive)
GI50 [59]: 21100 nM (inactive)
